According to patent US6677310B1, “Ring-expanded nucleosides and nucleotides” (Nabi, priority 1999, dated 2004):
Where two headings read alike, the source gives them in different places.

Columns and labels:
MDA-MB-435 = test: SRB anti-cancer assay, Breast Cancer; assay type: cell-based, human; conditions: MDA-MB-435 (Breast Cancer), 48 h; for CC50: read-out: LC50 (the source's name)
[1] = system: Varicella Zoster virus (VZV); test: Antiviral test against VZV; assay type: cell-based
Procedure: (§1) These compounds were also tested for their effects on HIV (Weislow, O. , et al., J. Natl. Cancer Inst., 81:577-586, 1989), herpes simplex virus (HSV)-1, HSV-2, cytomegalovirus (CMV), Varicella Zoster virus (VZV) and Epstein-Barr virus (EBV) replication (National Institute of Allergy and Infectious Diseases (NIAID), NIH, Bethesda, Md.).

UO-31 = test: SRB anti-cancer assay, Renal Cancer; assay type: cell-based, human; conditions: UO-31 (Renal Cancer), 48 h; for CC50: read-out: LC50 (the source's name)
UACC-257 = test: SRB anti-cancer assay, Melanoma; assay type: cell-based, human; conditions: UACC-257 (Melanoma), 48 h; for CC50: read-out: LC50 (the source's name)
COLO 205 = test: SRB anti-cancer assay, Colon Cancer; assay type: cell-based, human; conditions: COLO 205 (Colon Cancer), 48 h
[2] = system: HBV proteins (HBsAg, HBcAg, HBeAg); test: HBV protein levels in 2.2.15 cells (semi-quantitative EIA); assay type: cell-based, Hepatitis B virus; conditions: 10 μM, day 9, 2.2.15 cells
SF-295 = test: SRB anti-cancer assay, CNS Cancer; assay type: cell-based, human; conditions: SF-295 (CNS Cancer), 48 h; for CC50: read-out: LC50 (the source's name)
RXF 393 = test: SRB anti-cancer assay, Renal Cancer; assay type: cell-based, human; conditions: RXF 393 (Renal Cancer), 48 h
HOP-92 = assay type: cell-based, human; conditions: HOP-92 (Non-Small Cell Lung Cancer), 48 h
K-562 = test: SRB anti-cancer assay, Leukemia; assay type: cell-based, human; conditions: K-562 (Leukemia), 48 h; for CC50: read-out: LC50 (the source's name)
MDA-N = test: SRB anti-cancer assay, Breast Cancer; assay type: cell-based, human; conditions: 48 h; for CC50: read-out: LC50 (the source's name)
KM12 = test: SRB anti-cancer assay, Colon Cancer; assay type: cell-based, human; conditions: 48 h
SN12C = test: SRB anti-cancer assay, Renal Cancer; assay type: cell-based, human; conditions: 48 h; for CC50: read-out: LC50 (the source's name)
HSV-2 = test: Antiviral test against HSV-2; assay type: cell-based
Procedure: as §1

U251 = test: SRB anti-cancer assay, CNS Cancer; assay type: cell-based, human; conditions: 48 h
2.2.15 cells = test: Toxicity in confluent 2.2.15 cells (neutral red dye uptake); assay type: cell-based, human
Procedure: Anti-HBV activity and the toxicity against confluent 2.2.15 cells were determined by the previously described procedure (Korba, B. E., et al. Antivir. Res., 19:55-70, 1992; Korba, B. E., et al. Antivir. Res., 15:217-228, 1991). Briefly, confluent cultures of HBV transfected 2.2.15 cells were maintained on either 96-well or 24-well flat-bottomed tissue culture plates in RPMI 1640 medium with 2% fetal bovine serum (FBS). The cells were treated with test compounds daily for nine consecutive days. […] Cellular toxicity against separate cultures of confluent 2.2.15 cells was measured after treatment with the compounds for nine days under identical culture conditions as those used for the antiviral assay (Korba, B. E., et al. Antivir. Res., 19:55-70, 1992). Uptake of neutral red dye by treated cells was compared with dye uptake by untreated control cells (Korba, B. E., et al. Antivir. Res., 19:55-70, 1992).

A498 = test: SRB anti-cancer assay, Renal Cancer; assay type: cell-based, human; conditions: 48 h; for CC50: read-out: LC50 (the source's name)
MALME-3M = test: SRB anti-cancer assay, Melanoma; assay type: cell-based, human; conditions: MALME-3M (Melanoma), 48 h
HCC-2998 = test: SRB anti-cancer assay, Colon Cancer; assay type: cell-based, human; conditions: HCC-2998 (Colon Cancer), 48 h; for CC50: read-out: LC50 (the source's name)
MOLT-4 = test: SRB anti-cancer assay, Leukemia; assay type: cell-based, human; conditions: MOLT-4 (Leukemia), 48 h; for CC50: read-out: LC50 (the source's name)
OVCAR-4 = test: SRB anti-cancer assay, Ovarian Cancer; assay type: cell-based, human; conditions: OVCAR-4 (Ovarian Cancer), 48 h; for CC50: read-out: LC50 (the source's name)
[3] = system: panel of cancer cell lines; test: In vitro anti-cancer assay, panel of cancer cell lines (sulforhodamine B); assay type: cell-based, human; conditions: leukemia, non-small cell lung, colon, CNS, melanoma, ovarian, renal, prostate and breast cancer cell lines; read-out: GI50 values, range over the panel
LOX IMVI = test: SRB anti-cancer assay, Melanoma; assay type: cell-based, human; conditions: 48 h
HT29 = test: SRB anti-cancer assay, Colon Cancer; assay type: cell-based, human; conditions: 48 h
TK-10 = test: SRB anti-cancer assay, Renal Cancer; assay type: cell-based, human; conditions: TK-10 (Renal Cancer), 48 h
PC-3 = test: SRB anti-cancer assay, Prostate Cancer; assay type: cell-based, human; conditions: PC-3 (Prostate Cancer), 48 h
[4] = read-out: LC50 (the source's name)

Q: How did the GI50 (MDA-MB-435) turn out when N=c1[nH]c(=O)c2ncn([C@@H]3O[C@H](CO)[C@@H](O)[C@H]3O)c2c(=O)[nH]1 [Compound 14-1, 6-Imino-6H-1-β-D-ribofuranosyl-4,5,7,8-tetrahydroimidazo[4,5-e][1,3]diazepine-4,8-dione] was run?
A: > 100 µM

Q: And the TGI (MDA-MB-435)?
A: >100 µM

Q: What about the CC50 (MDA-MB-435) of the same molecule?
A: > 100 µM

Q: And the “antiviral activity against VZV” value [1]?
A: no antiviral activity

Q: And the GI50 (UO-31)?
A: > 100 µM

Q: What about the TGI (UO-31) of the same molecule?
A: >100 µM

Q: What about the CC50 (UO-31) of the same molecule?
A: > 100 µM

Q: And the GI50 (UACC-257)?
A: > 100 µM

Q: And the TGI (UACC-257)?
A: >100 µM

Q: What about the CC50 (UACC-257) of the same molecule?
A: > 100 µM

Q: What about the GI50 (COLO 205) of the same molecule?
A: > 100 µM

Q: What about the LC50 (COLO 205) of the same molecule?
A: > 100 µM

Q: What about the TGI (COLO 205) of the same molecule?
A: >100 µM

Q: And the “HBcAg, percentage of control” value [2]?
A: 75 ± 4%

Q: What about the “HBeAg, percentage of control” value [2] of the same molecule?
A: 50 ± 5 %

Q: And the “HBsAg, percentage of control” value [2]?
A: 67 ± 6%

Q: And the GI50 (SF-295)?
A: > 100 µM

Q: What about the TGI (SF-295) of the same molecule?
A: >100 µM

Q: And the CC50 (SF-295)?
A: > 100 µM

Q: What about the TGI (RXF 393) of the same molecule?
A: >100 µM

Q: And the CC50 (RXF 393; [4])?
A: > 100 µM

Q: What about the GI50 (HOP-92) of the same molecule?
A: > 100 µM

Q: What about the TGI (HOP-92) of the same molecule?
A: >100 µM

Q: And the CC50 (HOP-92; [4])?
A: > 100 µM

Q: And the GI50 (K-562)?
A: > 100 µM

Q: And the TGI (K-562)?
A: >100 µM

Q: What about the CC50 (K-562) of the same molecule?
A: > 100 µM

Q: And the GI50 (MDA-N)?
A: > 100 µM

Q: What about the TGI (MDA-N) of the same molecule?
A: >100 µM

Q: What about the CC50 (MDA-N) of the same molecule?
A: > 100 µM

Q: And the GI50 (KM12)?
A: > 100 µM

Q: What about the LC50 (KM12) of the same molecule?
A: > 100 µM

Q: What about the TGI (KM12) of the same molecule?
A: >100 µM

Q: What about the GI50 (SN12C) of the same molecule?
A: > 100 µM

Q: And the TGI (SN12C)?
A: >100 µM

Q: What about the CC50 (SN12C) of the same molecule?
A: > 100 µM

Q: What about the “antiviral activity against HSV-2” value (HSV-2) of the same molecule?
A: no antiviral activity

Q: What about the GI50 (U251) of the same molecule?
A: > 100 µM

Q: And the TGI (U251)?
A: >100 µM

Q: What about the CC50 (U251; [4]) of the same molecule?
A: > 100 µM

Q: What about the CC50 (2.2.15 cells; 2.2.15 cells, Example 13, read-out: CC50 (cellular toxicity)) of the same molecule?
A: 2400 µM

Q: And the CC50 (2.2.15 cells; confluent 2.2.15 cells, 9 days, neutral red dye uptake, read-out: CC50)?
A: 2430 µM

Q: What about the GI50 (A498) of the same molecule?
A: > 100 µM

Q: And the TGI (A498)?
A: >100 µM

Q: And the CC50 (A498)?
A: > 100 µM

Q: What about the GI50 (MALME-3M) of the same molecule?
A: > 100 µM

Q: And the LC50 (MALME-3M)?
A: > 100 µM

Q: What about the TGI (MALME-3M) of the same molecule?
A: >100 µM

Q: And the GI50 (HCC-2998)?
A: > 100 µM

Q: What about the TGI (HCC-2998) of the same molecule?
A: >100 µM

Q: And the CC50 (HCC-2998)?
A: > 100 µM

Q: What about the GI50 (MOLT-4) of the same molecule?
A: > 100 µM

Q: What about the TGI (MOLT-4) of the same molecule?
A: >100 µM

Q: And the CC50 (MOLT-4)?
A: > 100 µM

Q: What about the GI50 (OVCAR-4) of the same molecule?
A: > 100 µM

Q: And the TGI (OVCAR-4)?
A: >100 µM

Q: What about the CC50 (OVCAR-4) of the same molecule?
A: > 100 µM

Q: Which results are given for N=c1nc(N)c2ncn([C@@H]3O[C@H](COC(=O)c4ccccc4)[C@@H](OC(=O)c4ccccc4)[C@H]3OC(=O)c3ccccc3)c2c(N)n1 [4,8-Diamino-6H-6-imino-1(2′,3′,5′-tri-O-benzoyl-β-D-ribofuranosyl)imidazo[4,5-e][1,3]diazepine]?
A: GI50 (MDA-MB-435): 14.9 µM; TGI (MDA-MB-435): 29.8 µM; CC50 (MDA-MB-435): 59.8 µM; GI50 (UO-31): 6.4 µM; TGI (UO-31): 20.6 µM; CC50 (UO-31): 51.1 µM; GI50 (UACC-257): 4.51 µM; TGI (UACC-257): 18.3 µM; CC50 (UACC-257): 73.5 µM; GI50 (COLO 205): 1.49 µM; LC50 (COLO 205): 5.55 µM; TGI (COLO 205): 2.87 µM; GI50 [3]: 0.1 to 10 µM; GI50 (SF-295): 6.03 µM; TGI (SF-295): 19.6 µM; CC50 (SF-295): 49.2 µM; GI50 (LOX IMVI): 3.01 µM; TGI (LOX IMVI): >100 µM; CC50 (LOX IMVI; [4]): > 100 µM; GI50 (HT29): 2.58 µM; TGI (HT29): 10.3 µM; CC50 (HT29; [4]): 42.3 µM; GI50 (K-562): 2.74 µM; TGI (K-562): >100 µM; CC50 (K-562): > 100 µM; GI50 (MDA-N): 5.88 µM; TGI (MDA-N): 21.7 µM; CC50 (MDA-N): 58.6 µM; GI50 (KM12): 5.5 µM; LC50 (KM12): 53.6 µM; TGI (KM12): 19.4 µM; GI50 (SN12C): 6.44 µM; TGI (SN12C): 39.4 µM; CC50 (SN12C): > 100 µM; GI50 (TK-10): 21.3 µM; TGI (TK-10): 82.2 µM; CC50 (TK-10; [4]): > 100 µM; GI50 (PC-3): 4.46 µM; TGI (PC-3): 16.6 µM; GI50 (A498): 20 µM; TGI (A498): 37.8 µM; CC50 (A498): 71.8 µM; GI50 (MALME-3M): 3.04 µM; LC50 (MALME-3M): 33.8 µM; TGI (MALME-3M): 8.07 µM; GI50 (HCC-2998): 3.18 µM; TGI (HCC-2998): 6.41 µM; CC50 (HCC-2998): 19.2 µM; GI50 (MOLT-4): 2.31 µM; TGI (MOLT-4): 7.08 µM; CC50 (MOLT-4): > 100 µM; GI50 (OVCAR-4): 13.8 µM; TGI (OVCAR-4): 28 µM; CC50 (OVCAR-4): 57 µM
